The test system of this experiment is HIV-IIIb. In words: Test A: Antiviral Assays in MT4 Cells. Format: cell-based. As to conditions: MT-4 cells infected with HIV-IIIb (0.004 m.o.i.), 5 days of incubation, CellTiter-Glo chemiluminescence readout. The protocol: Test A: Antiviral Assays in MT4 Cells For the antiviral assay utilizing MT-4 cells, 0.4 μL of 189X test concentration of 3-fold serially diluted compound in DMSO was added to 40 μL of cell growth medium (RPMI 1640, 10% FBS, 1% penicillin/Streptomycin, 1% L-Glutamine, 1% HEPES) in each well of 384-well assay plates (10 concentrations) in quadruplicate. 1 mL aliquots of 2×10e6 MT-4 cells are pre-infected for 1 and 3 hrs respectively, @ 37° C. with 25 μL (MT4) or of either cell growth medium (mock-infected) or a fresh 1:250 dilution of an HIV-IIIb concentrated ABI stock (0.004 m.o.i. for MT4 cells). Infected and uninfected cells are diluted in cell growth medium and 35 uL of 2000 (for MT4) cells is added to each well of the assay plates. Assay plates were then incubated in a 37° C. incubator. After 5 days of incubation, 25 μl of 2× concentrated CellTiter-Glo™ Reagent (catalog #G7573, Promega Biosciences, Inc., Madison, Wis.) was added to each well of the assay plate. Cell lysis was carried out by incubating at room temperature for 2-3 min and then chemiluminescence was read using the Envision reader (PerkinElmer).
For orientation: In ATP-based viability assays light output follows the ATP content of the culture.

[1] abbreviates: Human immunodeficiency virus 1, IIIB, MT4, 120 h.

By EC50 is commonly meant the midpoint of the concentration-response curve.

On to `CC(=O)c1ccc2c(-c3ccc4c5c(ccnc35)CCO4)c([C@H](OC(C)(C)C)C(=O)O)c(C)cc2n1` [Compound 111, (S)-2-((R)-2-Acetyl-5-(2,3-dihydropyrano[4,3,2-de]quinolin-7-yl)-7-methylquinolin-6-yl)-2-tert-butoxyacetic acid], for which the 50% effective concentration (EC50) under setting [1] was determined as 352 nM.

Regarding `Cc1cc2nc(-c3cn[nH]c3)ccc2c(-c2ccc(Cl)cc2)c1[C@H](OC(C)(C)C)C(=O)O` [Compound 77, (S)-2-tert-butoxy-2-(5-(4-chlorophenyl)-7-methyl-2-(1H-pyrazol-4-yl)quinolin-6-yl)acetic acid], a half-maximal response under setting [1] (EC50) required 135 nM. This EC50 lies about 2.6-fold lower than the previous one.

On to `Cc1cc2c(ccc(=O)n2-c2ccc(Cl)cc2)c(-c2ccc(Cl)cc2)c1[C@H](OC(C)(C)C)C(=O)O` [Compound 59, (S)-2-(1,5-Bis(4-chlorophenyl)-7-methyl-2-oxo-1,2-dihydroquinolin-6-yl)-2-tert-butoxyacetic acid], for which, under setting [1], the midpoint of the response, the EC50, lay at 321 nM.

As to `Cc1cc2nc(CN(C)C)ccc2c(-c2ccc(Cl)cc2)c1[C@H](OC(C)(C)C)C(=O)O` [Compound 9, (S)-2-tert-butoxy-2-(5-(4-chlorophenyl)-2-((dimethylamino)methyl)-7-methylquinolin-6-yl)acetic acid], under setting [1], the EC50 worked out at 173 nM.

As to `Cc1cc2nc(-c3ccccn3)ccc2c(-c2ccc(Cl)cc2)c1[C@H](OC(C)(C)C)C(=O)O` [Compound 79, (S)-2-tert-butoxy-2-(5-(4-chlorophenyl)-7-methyl-2-(pyridin-2-yl)quinolin-6-yl)acetic acid], the EC50 under setting [1] worked out at 86 nM.

In turn, `COc1ccc2c(-c3ccc(Cl)cc3)c([C@H](OC(C)(C)C)C(=O)O)c(C)cc2n1` [Compound 66, (S)-2-tert-butoxy-2-(5-(4-chlorophenyl)-2-methoxy-7-methylquinolin-6-yl)acetic acid] displayed a concentration giving a half-maximal response (EC50) under setting [1] of 297 nM.

Under setting [1], `Cc1cc2nc(-n3ccnc3)ccc2c(-c2ccc(Cl)cc2)c1[C@H](OC(C)(C)C)C(=O)O` [Compound 91, (S)-2-tert-Butoxy-2-(5-(4-chlorophenyl)-2-(1H-imidazol-1-yl)-7-methylquinolin-6-yl)acetic acid] displayed an EC50 of 73 nM. Compared with the last molecule, the EC50 is about 4.1-fold lower.

In the case of `Cc1cc2nc(C#CC3CC3)ccc2c(-c2ccc(Cl)cc2)c1[C@H](OC(C)(C)C)C(=O)O` [Compound 38, (S)-2-tert-butoxy-2-(5-(4-chlorophenyl)-2-(cyclopropylethynyl)-7-methylquinolin-6-yl)acetic acid], a half-maximal effect under setting [1] (EC50) was put at 68 nM.

As for `Cc1cc2c(ccc3nnnn32)c(-c2ccc(Cl)cc2)c1[C@H](OC(C)(C)C)C(=O)O` [Compound 64, (S)-2-tert-butoxy-2-(6-(4-chlorophenyl)-8-methyltetrazolo[1,5-a]quinolin-7-yl)acetic acid], the EC50 under setting [1] stood at 290 nM.

Regarding `Cc1cc2nc(C#Cc3ccccc3)ccc2c(-c2ccc3c4c(ccnc24)CCO3)c1[C@H](OC(C)(C)C)C(=O)O` (atropisomer, axis not shown) [Compound 40, (S)-2-tert-butoxy-2-((R)-5-(2,3-dihydropyrano[4,3,2-de]quinolin-7-yl)-7-methyl-2-(phenylethynyl)quinolin-6-yl)acetic acid], the EC50 under setting [1] turned out to be 51 nM. Compared with the last molecule, the EC50 is about 5.7-fold lower.

Regarding `Cc1cc2nc(N(C)CC(C)C)ccc2c(-c2ccc3c4c(ccnc24)CCO3)c1[C@H](OC(C)(C)C)C(=O)O` [Compound 92, (S)-2-tert-butoxy-2-((R)-5-(2,3-dihydropyrano[4,3,2-de]quinolin-7-yl)-2-(isobutyl(methyl)amino)-7-methylquinolin-6-yl)acetic acid], under setting [1], the response was half-maximal at 300 nM (EC50). This EC50 is about 5.9-fold higher than that of the molecule before.

For the molecule `Cc1cc2nc(C#Cc3ccccc3)ccc2c(-c2ccc(Cl)cc2)c1[C@H](OC(C)(C)C)C(=O)O` [Compound 37A, (S)-2-tert-butoxy-2-(5-(4-chlorophenyl)-7-methyl-2-(phenylethynyl)quinolin-6-yl)acetic acid], under setting [1], the concentration giving a half-maximal response (EC50) amounted to 36 nM.

As for `Cc1cc2nc(C(=O)N(C)c3ccccc3)ccc2c(-c2ccc(Cl)cc2)c1[C@H](OC(C)(C)C)C(=O)O` [Compound 17, (S)-2-tert-butoxy-2-(5-(4-chlorophenyl)-7-methyl-2-(methyl(phenyl)carbamoyl)quinolin-6-yl)acetic acid], it took 359 nM to reach a half-maximal effect under setting [1] (EC50).

As for `Cc1cc2nc(C3CCCCC3)ccc2c(-c2ccc3c4c(ccnc24)CCO3)c1[C@H](OC(C)(C)C)C(=O)O` (atropisomer, axis not shown) [Compound 52, (S)-2-tert-Butoxy-2-((R)-2-cyclohexyl-5-(2,3-dihydropyrano[4,3,2-de]quinolin-7-yl)-7-methylquinolin-6-yl)acetic acid], under setting [1], the response was half-maximal at 25 nM (EC50).

Molecule `Cc1ccc2c(-c3ccc(Cl)cc3Cl)c([C@H](OC(C)(C)C)C(=O)O)c(C)cc2n1` [Compound 104] yielded a concentration giving a half-maximal response (EC50) of 720 nM. This counts as sub-micromolar.

Under setting [1], `Cc1cc2nc(CCc3ccccc3)ccc2c(-c2ccc3c4c(ccnc24)CCO3)c1[C@H](OC(C)(C)C)C(=O)O` (atropisomer, axis not shown) [Compound 41, (S)-2-tert-butoxy-2-((R)-5-(2,3-dihydropyrano[4,3,2-de]quinolin-7-yl)-7-methyl-2-phenethylquinolin-6-yl)acetic acid] gave a 50% effective concentration (EC50) of 26 nM.

`Cc1cc2nc(Cc3ccccc3)ccc2c(-c2ccc3c4c(ccnc24)CCO3)c1[C@H](OC(C)(C)C)C(=O)O` (atropisomer, axis not shown) [Compound 53, (S)-2-((R)-2-Benzyl-5-(2,3-dihydropyrano[4,3,2-de]quinolin-7-yl)-7-methylquinolin-6-yl)-2-tert-butoxyacetic acid]: under setting [1], the EC50 stood at 360 nM.

Turning to `Cc1cc2nc(C(=O)N(C)C)ccc2c(-c2ccc(Cl)cc2)c1[C@H](OC(C)(C)C)C(=O)O` [Compound 16, (S)-2-tert-Butoxy-2-(5-(4-chlorophenyl)-2-(dimethylcarbamoyl)-7-methylquinolin-6-yl)acetic acid], the half-maximal effective concentration (EC50) under setting [1] worked out at 220 nM.

For the molecule `Cc1cc2[nH]c(=O)ccc2c(-c2ccc3c4c(ccnc24)CCO3)c1[C@H](OC(C)(C)C)C(=O)O` [Compound 97, (S)-2-tert-Butoxy-2-((R)-5-(2,3-dihydropyrano[4,3,2-de]quinolin-7-yl)-7-methyl-2-oxo-1,2-dihydroquinolin-6-yl)acetic acid], the half-maximal effective concentration (EC50) under setting [1] stood at 898 nM.

Under setting [1], `Cc1ccc2c(-c3ccc4c5c3CCCN5CCO4)c([C@H](OC(C)(C)C)C(=O)O)c(C)cc2n1` [Compound 103, (2S)-2-tert-butoxy-2-(2,7-dimethyl-5-(3,5,6,7-tetrahydro-2H-[1,4]oxazino[2,3,4-ij]quinolin-8-yl)quinolin-6-yl)acetic acid] displayed a half-maximal effective concentration (EC50) of 25 nM.

As for `Cc1ccc2c(-c3ccc4c5c(cccc35)CCO4)c([C@H](OC(C)(C)C)C(=O)O)c(C)cc2n1` (single isomer, unassigned) [Compound 102A], the concentration for a half-maximal effect (EC50) was 13 nM.

Regarding `Cc1cc2nc(-c3ccnnc3)ccc2c(-c2ccc3c4c(ccnc24)CCO3)c1[C@H](OC(C)(C)C)C(=O)O` [Compound 88, (S)-2-tert-butoxy-2-((R)-5-(2,3-dihydropyrano[4,3,2-de]quinolin-7-yl)-7-methyl-2-(pyridazin-4-yl)quinolin-6-yl)acetic acid], a half-maximal effect under setting [1] (EC50) was put at 514 nM.

Regarding `Cc1cc2nc(CN3CCCCC3)ccc2c(-c2ccc(Cl)cc2)c1[C@H](OC(C)(C)C)C(=O)O` [Compound 11, (S)-2-tert-Butoxy-2-(5-(4-chlorophenyl)-7-methyl-2-(piperidin-1-ylmethyl)quinolin-6-yl)acetic acid], the half-maximal effective concentration (EC50) under setting [1] stood at 479 nM.

Under setting [1], `Cc1cc2nc(-c3cncnc3)ccc2c(-c2ccc3c4c(ccnc24)CCO3)c1[C@H](OC(C)(C)C)C(=O)O` (atropisomer, axis not shown) [Compound 72, (S)-2-tert-Butoxy-2-((R)-5-(2,3-dihydropyrano[4,3,2-de]quinolin-7-yl)-7-methyl-2-(pyrimidin-5-yl)quinolin-6-yl)acetic acid] gave a concentration giving a half-maximal response (EC50) of 194 nM. Against the preceding molecule, the EC50 is about 2.5-fold lower.

In turn, `COCCOCCCNc1ccc2c(-c3ccc(Cl)cc3)c([C@H](OC(C)(C)C)C(=O)O)c(C)cc2n1` [Compound 35, (S)-2-tert-butoxy-2-(5-(4-chlorophenyl)-2-(3-(2-methoxyethoxy)propylamino)-7-methylquinolin-6-yl)acetic acid] yielded an EC50 under setting [1] of 157 nM.

In the case of `CCOCc1ccc2c(-c3ccc(Cl)cc3)c([C@H](OC(C)(C)C)C(=O)O)c(C)cc2n1` [Compound 15, (S)-2-tert-butoxy-2-(5-(4-chlorophenyl)-2-(ethoxymethyl)-7-methylquinolin-6-yl)acetic acid], the response under setting [1] was half-maximal at 334 nM (EC50).

Take `Cc1cc2c(ccc3nncn32)c(-c2ccc(Cl)cc2)c1[C@H](OC(C)(C)C)C(=O)O` [Compound 63, (S)-2-tert-butoxy-2-(6-(4-chlorophenyl)-8-methyl-[1,2,4]triazolo[4,3-a]quinolin-7-yl)acetic acid]: the 50% effective concentration (EC50) under setting [1] was 183 nM.

The molecule `Cc1cc2nc(N(C)C)ccc2c(-c2ccc3c4c(ccnc24)CCO3)c1[C@H](OC(C)(C)C)C(=O)O` [Compound 96, (S)-2-tert-butoxy-2-((R)-5-(2,3-dihydropyrano[4,3,2-de]quinolin-7-yl)-2-(dimethylamino)-7-methylquinolin-6-yl)acetic acid] returned an EC50 under setting [1] of 37 nM. Against the preceding molecule, the EC50 is about 4.9-fold lower.

`Cc1cc2nc(NCc3ccncc3)ccc2c(-c2ccc(Cl)cc2)c1[C@H](OC(C)(C)C)C(=O)O` [Compound 33, (S)-2-tert-Butoxy-2-(5-(4-chlorophenyl)-7-methyl-2-(pyridin-4-ylmethylamino)quinolin-6-yl)acetic acid] gave an EC50 under setting [1] of 95 nM. Compared with the last molecule, the EC50 is about 2.6-fold higher.

The values above are taken from patent publication US9296758B2, “2-quinolinyl-acetic acid derivatives as HIV antiviral compounds” (GILEAD SCIENCES, INC., priority 2010, dated 2016).
